Data published in patent US7709482B2, “Polycyclic heteroaryl substituted triazoles useful as Axl inhibitors” (Rigel Pharmaceuticals, Inc., priority 2006, dated 2010).
pIC50: −log10 of the molar value. Read-outs that look alike come from different tables or passages of the source.

Target: T1, Axl (Homo sapiens, UniProt P30530)
T1 construct: endogenous in cells; host or cells: HeLa cells
T1 sequence (P30530 26-894): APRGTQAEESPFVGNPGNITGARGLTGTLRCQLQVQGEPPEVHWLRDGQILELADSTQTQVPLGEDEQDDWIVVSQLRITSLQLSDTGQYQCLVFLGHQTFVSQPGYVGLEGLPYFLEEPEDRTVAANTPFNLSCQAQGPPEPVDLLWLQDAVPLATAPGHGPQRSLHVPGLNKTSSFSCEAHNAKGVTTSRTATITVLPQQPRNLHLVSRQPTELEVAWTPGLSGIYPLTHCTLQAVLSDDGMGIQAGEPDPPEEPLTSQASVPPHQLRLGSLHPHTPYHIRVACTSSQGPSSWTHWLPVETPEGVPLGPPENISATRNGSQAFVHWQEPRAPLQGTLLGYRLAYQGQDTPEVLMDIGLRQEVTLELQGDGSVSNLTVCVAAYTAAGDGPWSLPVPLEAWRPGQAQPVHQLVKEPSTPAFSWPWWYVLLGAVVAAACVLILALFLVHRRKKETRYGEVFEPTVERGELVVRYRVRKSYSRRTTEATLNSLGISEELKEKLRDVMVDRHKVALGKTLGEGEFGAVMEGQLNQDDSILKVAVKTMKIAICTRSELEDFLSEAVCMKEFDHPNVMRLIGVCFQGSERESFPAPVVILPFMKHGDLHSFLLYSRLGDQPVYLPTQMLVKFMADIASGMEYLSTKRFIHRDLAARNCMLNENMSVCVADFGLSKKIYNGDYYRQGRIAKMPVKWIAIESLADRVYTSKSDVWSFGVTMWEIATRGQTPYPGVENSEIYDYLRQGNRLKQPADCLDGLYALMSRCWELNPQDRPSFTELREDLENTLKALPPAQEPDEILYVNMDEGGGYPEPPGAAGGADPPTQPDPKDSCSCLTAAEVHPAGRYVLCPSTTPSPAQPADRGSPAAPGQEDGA
Test: Phospho-Akt In-Cell Western Assay (inhibition of Axl activity after Axl-antibody cross-linking)
Assay type: cell-based
How it was run: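 Phospho-Akt was detected in formaldehyde-fixed cells by in-cell immunostaining with HRP chemiluminescence. Before fixation, HeLa cells kept 24 h in low-serum medium containing 500 ng/mL Axl/Fc received compound for 1 h at 37 °C, followed by 5-min Axl activation through antibody clustering.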

[1] = Hela cells, phospho-Akt chemiluminescence normalized to relative cell number, compounds of formula (Ia), Table 1, read-out: IC50

pIC50 [1]	SMILES	pIC50
5.00 to 6.00	COc1ccc2c(c1)CCCc1cc(-n3nc(Nc4ccc(OCCN5CCCC5)c(F)c4)nc3N)nnc1-2 [Compound 56, 1-(6,7-dihydro-5H-9-methoxybenzo[6,7]cyclo-hepta[1,2-c]pyridazin-3-yl)-N^3-(3-fluoro-4-(2-(pyrrolidin-1-yl)ethoxy)phenyl)-1H-1,2,4-triazole-3,5-diamine]	
< 4.70	COc1ccc2c(c1)CCCc1cc(-n3nc(Nc4ccc(N5CCN(C6CCCCC6)CC5)c(F)c4)nc3N)nnc1-2 [Compound 57, 1-(6,7-dihydro-5H-9-methoxybenzo[6,7]cyclo-hepta[1,2-c]pyridazin-3-yl)-N^3-(3-fluoro-4-(4-(cyclohexyl)piperazin-1-yl)phenyl)-1H-1,2,4-triazole-3,5-diamine]	
> 6.00	CN1CCN(C2CCN(c3ccc(Nc4nc(N)n(-c5cc6c(nn5)-c5ccccc5CCC6)n4)cc3F)CC2)CC1 [Compound 58, 1-(6,7-dihydro-5H-benzo[6,7]cyclohepta[1,2-c]pyridazin-3-yl)-N^3-(3-fluoro-4-(4-(4-methylpiperazin-1-yl)piperidin-1-yl)phenyl)-1H-1,2,4-triazole-3,5-diamine]	
> 6.00	CC1CCN(C2CCN(c3ccc(Nc4nc(N)n(-c5cc6c(nn5)-c5ccccc5CCC6)n4)cc3F)CC2)CC1 [Compound 59, 1-(6,7-dihydro-5H-benzo[6,7]cyclohepta[1,2-c]pyridazin-3-yl)-N^3-(3-fluoro-4-(4-(4-methylpiperidin-1-yl)piperidin-1-yl)phenyl)-1H-1,2,4-triazole-3,5-diamine]	
> 6.00	CN(CCOc1ccc(Nc2nc(N)n(-c3cc4c(nn3)-c3ccccc3CCC4)n2)cc1)C1CCCC1 [Compound 60, 1-(6,7-dihydro-5H-benzo[6,7]cyclohepta[1,2-c]pyridazin-3-yl)-N^3-(4-(2-(N-methylcyclopentylamino)-ethoxy)phenyl)-1H-1,2,4-triazole-3,5-diamine]	
> 6.00	CN(C)C1CCN(c2ccc(Nc3nc(N)n(-c4cc5c(nn4)-c4ccccc4CCC5)n3)cc2F)CC1 [Compound 61, 1-(6,7-dihydro-5H-benzo[6,7]cyclohepta[1,2-c]pyridazin-3-yl)-N^3-(3-fluoro-4-(4-dimethylaminopiperidin-1-yl)phenyl)-1H-1,2,4-triazole-3,5-diamine]	
> 6.00	Nc1nc(Nc2ccc(N3CCC(N4CCCC4)CC3)c(Cl)c2)nn1-c1cc2c(nn1)-c1ccccc1CCC2 [Compound 62, 1-(6,7-dihydro-5H-benzo[6,7]cyclohepta[1,2-c]pyridazin-3-yl)-N^3-(3-chloro-4-(4-pyrrolidin-1-yl-piperidin-1-yl)phenyl)-1H-1,2,4-triazole-3,5-diamine]	
5.00 to 6.00	Nc1nc(Nc2ccc(N3CCC(N4CCCC4)CC3)c(C(F)(F)F)c2)nn1-c1cc2c(nn1)-c1ccccc1CCC2 [Compound 63, 1-(6,7-dihydro-5H-benzo[6,7]cyclohepta[1,2-c]pyridazin-3-yl)-N^3-(3-trifluoromethyl-4-(4-pyrrolidin-1-yl-piperidin-1-yl)phenyl)-1H-1,2,4-triazole-3,5-diamine]	
5.00 to 6.00	COc1cc2c(cc1OC)-c1nnc(-n3nc(Nc4ccc(N5CCC(N6CCCC6)CC5)c(F)c4)nc3N)cc1CCC2 [Compound 64, 1-(6,7-dihydro-5H-9,10-dimethoxybenzo[6,7]cyclo-hepta[1,2-c]pyridazin-3-yl)-N^3-(3-fluoro-4-(4-pyrrolidin-1-yl-piperidin-1-yl)phenyl)-1H-1,2,4-triazole-3,5-diamine]	
> 6.00	COc1cc2c(c(OC)c1OC)-c1nnc(-n3nc(Nc4ccc(N5CCC(N6CCCC6)CC5)c(F)c4)nc3N)cc1CCC2 [Compound 65, 1-(6,7-dihydro-5H-9,10,11-trimethoxybenzo[6,7]cyclo-hepta[1,2-c]pyridazin-3-yl)-N^3-(3-fluoro-4-(4-pyrrolidin-1-yl-piperidin-1-yl)phenyl)-1H-1,2,4-triazole-3,5-diamine]	
> 6.00	Nc1nc(Nc2ccc(N3CCCC(N4CCCC4)C3)c(F)c2)nn1-c1cc2c(nn1)-c1ccccc1CCC2 (stereo not shown) [Compound 68, 1-(6,7-dihydro-5H-benzo[6,7]cyclohepta[1,2-c]pyridazin-3-yl)-N^3-(3-fluoro-4-(3-pyrrolidin-1-yl-piperidin-1-yl)phenyl)-1H-1,2,4-triazole-3,5-diamine]	
> 6.00	Nc1nc(Nc2ccc(N3CCCCC(N4CCCC4)C3)c(F)c2)nn1-c1cc2c(nn1)-c1ccccc1CCC2 (stereo not shown) [Compound 69, 1-(6,7-dihydro-5H-benzo[6,7]cyclohepta[1,2-c]pyridazin-3-yl)-N^3-(3-fluoro-4-(3-pyrrolidin-1-yl-azepan-1-yl)phenyl)-1H-1,2,4-triazole-3,5-diamine]	
> 6.00	CN1CCC(C2CCN(c3ccc(Nc4nc(N)n(-c5cc6c(nn5)-c5ccccc5CCC6)n4)cc3F)CC2)CC1 [Compound 70, 1-(6,7-dihydro-5H-benzo[6,7]cyclohepta[1,2-c]pyridazin-3-yl)-N^3-(3-fluoro-4-(4-N-methylpiperidin-4-yl-piperidin-1-yl)phenyl)-1H-1,2,4-triazole-3,5-diamine]	
> 6.00	Nc1nc(Nc2ccc(N3CCC(N4CCCC4)CC3)c(F)c2)nn1-c1cc2c(nn1)CCCc1ccccc1-2 [Compound 71, 1-(6,7-dihydro-5H-benzo[6,7]cyclohepta[4,5-c]pyridazin-2-yl)-N^3-(3-fluoro-4-(4-(pyrrolidinyl)piperidinyl)-phenyl)-1H-1,2,4-triazole-3,5-diamine]	
> 6.00	Nc1nc(Nc2ccc(N3CCN4CCCCCC4C3)c(F)c2)nn1-c1cc2c(nn1)-c1ccccc1CCC2 (stereo not shown) [Compound 73, 1-(6,7-dihydro-5H-benzo[6,7]cyclohepta[1,2-c]pyridazin-3-yl)-N^3-(3-fluoro-4-(decahydropyrazino[1,2-a]azepin-2-yl)phenyl)-1H-1,2,4-triazole-3,5-diamine]	
	Nc1nc(Nc2ccc(N3C4CCC3CC(N3CCCC3)C4)c(F)c2)nn1-c1cc2c(nn1)-c1ccccc1CCC2 (stereo not shown) [Compound 76, 1-(6,7-dihydro-5H-benzo[6,7]cyclohepta[1,2-c]pyridazin-3-yl)-N^3-(3-fluoro-4-(3-(pyrrolidin-1-yl)-8-azabicyclo[3.2.1]oct-8-yl)phenyl)-1H-1,2,4-triazole-3,5-diamine]	> 6.00
> 6.00	Nc1nc(Nc2ccc(N3CCCC(N4CCCC4)CC3)c(F)c2)nn1-c1cc2c(nn1)-c1ccccc1CCC2 (stereo not shown) [Compound 77, 1-(6,7-dihydro-5H-benzo[6,7]cyclohepta[1,2-c]pyridazin-3-yl)-N^3-(3-fluoro-4-(4-pyrrolidin-1-yl-azepan-1-yl)phenyl)-1H-1,2,4-triazole-3,5-diamine]	
> 6.00	CC(C)N1CCN(C2CCN(c3ccc(Nc4nc(N)n(-c5cc6c(nn5)-c5ccccc5CCC6)n4)cc3F)CC2)CC1 [Compound 80, 1-(6,7-dihydro-5H-benzo[6,7]cyclohepta[1,2-c]pyridazin-3-yl)-N^3-(3-fluoro-4-(4-(4-isopropylpiperazin-1-yl)piperidin-1-yl)phenyl)-1H-1,2,4-triazole-3,5-diamine]	
> 6.00	CN1CCC2CN(c3ccc(Nc4nc(N)n(-c5cc6c(nn5)-c5ccccc5CCC6)n4)cc3F)CC21 (stereo not shown) [Compound 81, 1-(6,7-dihydro-5H-benzo[6,7]cyclohepta[1,2-c]pyridazin-3-yl)-N^3-(3-fluoro-4-(1-methyl-octahydropyrrolo[3,4-b]pyrrol-5-yl)phenyl)-1H-1,2,4-triazole-3,5-diamine]	

SMILES	pIC50 [1]	pIC50
CN1CC2CN(c3ccc(Nc4nc(N)n(-c5cc6c(nn5)-c5ccccc5CCC6)n4)cc3F)CC2C1 (stereo not shown) [Compound 66, 1-(6,7-dihydro-5H-benzo[6,7]cyclohepta[1,2-c]pyridazin-3-yl)-N^3-(3-fluoro-4-(5-methyloctahydro-pyrrolo[3,4-c]pyrrolyl)phenyl)-1H-1,2,4-triazole-3,5-diamine]	> 6.00	
CCCN1CC2CN(c3ccc(Nc4nc(N)n(-c5cc6c(nn5)-c5ccccc5CCC6)n4)cc3F)CC2C1 (stereo not shown) [Compound 72, 1-(6,7-dihydro-5H-benzo[6,7]cyclohepta[1,2-c]pyridazin-3-yl)-N^3-(3-fluoro-4-(5-propyl-octahydropyrrolo[3,4-c]pyrrolyl)phenyl)-1H-1,2,4-triazole-3,5-diamine]	> 6.00	
Nc1nc(Nc2ccc(N3CC4CN(C5CCCC5)CC4C3)c(F)c2)nn1-c1cc2c(nn1)-c1ccccc1CCC2 (stereo not shown) [Compound 75, 1-(6,7-dihydro-5H-benzo[6,7]cyclohepta[1,2-c]pyridazin-3-yl)-N^3-(3-fluoro-4-(5-cyclopentyloctahydro-pyrrolo[3,4-c]pyrrolyl)phenyl)-1H-1,2,4-triazole-3,5-diamine]	> 6.00	
